In article PMC12752747, “ENT3: A lysosomal urate transporter regulating urate disposition and macrophage inflammation” (iScience, 2025) one finds IC50 and Km data, which are given here for three molecules.

As usually defined, the IC50 is the concentration at which inhibition is half-maximal. Read a low IC50 as greater potency in that assay. As a reminder, the Km is the concentration of substrate that gives half-maximal velocity.

The target in data set [1] is T1, ENT3 (equilibrative nucleoside transporter 3), ENT3-AA construct (Homo sapiens, UniProt Q9BZD2, L31A/L32A).
T1 construct: gene SLC29A3; ENT3-AA: full-length ENT3 redirected to the plasma membrane, dileucine L31L32 replaced with A31A32
T1 sequence (Q9BZD2 1-475 L31A/L32A): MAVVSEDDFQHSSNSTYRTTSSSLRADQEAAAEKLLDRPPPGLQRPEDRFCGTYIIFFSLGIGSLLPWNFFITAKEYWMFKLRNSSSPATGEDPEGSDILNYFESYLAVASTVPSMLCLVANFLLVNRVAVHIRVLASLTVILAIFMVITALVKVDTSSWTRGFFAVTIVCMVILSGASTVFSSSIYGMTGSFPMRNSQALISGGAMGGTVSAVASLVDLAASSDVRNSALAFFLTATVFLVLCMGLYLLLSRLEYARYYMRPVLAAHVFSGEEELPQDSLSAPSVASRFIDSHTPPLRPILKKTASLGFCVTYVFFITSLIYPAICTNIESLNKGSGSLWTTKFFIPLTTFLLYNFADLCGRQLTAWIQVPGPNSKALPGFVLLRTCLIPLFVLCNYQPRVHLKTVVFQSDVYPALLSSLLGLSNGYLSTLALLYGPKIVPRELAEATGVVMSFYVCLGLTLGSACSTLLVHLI
In words: inhibition of […]urate ([…]) uptake in HEK293 cells transiently expressing ENT3-AA, pH […]. Format: cell-based.

Substrate in data set [2]: O=c1[nH]c(=O)c2[nH]c(=O)[nH]c2[nH]1
In words: cells, lysate or membranes. Format: cell-based, Homo sapiens. To be noted: proton-coupled transport.

Molecule `OCCN(CCO)c1nc(N2CCCCC2)c2nc(N(CCO)CCO)nc(N3CCCCC3)c2n1` [dipyridamole] gave an IC50 in data set [1] of 7.71 µM. On the same count and under the same terms, under `O=[N+]([O-])c1ccc(CSc2ncnc3c2ncn3C2OC(CO)C(O)C2O)cc1` (stereo not drawn) [nitrobenzylthioinosine] stands 21.7 µM.

B1: ENT3 (equilibrative nucleoside transporter 3), ENT3-AA construct (Homo sapiens; L31A/L32A) (protein)
chain: T1 sequence (Q9BZD2 1-475 L31A/L32A)
notes: ENT3-AA: full-length ENT3 redirected to the plasma membrane, dileucine L31L32 replaced with A31A32
For B1, the Km in data set [2] is 1150 µM.
